Reference: US8747891B2, “Ceramide anionic liposome compositions” (The Penn State Research Foundation, priority 2011, dated 2014)

How the values were obtained:
[1] = tested on: Pane 1 pancreatic cancer cells; test: MTS cell viability assay; format: cell-based; conditions: 24 hrs; 3.2 μM liposomes; 0.01, 0.1 or 1 μM vinblastine; p<0.05 free vs encapsulated vinblastine
Experimental: Pane 1 pancreatic cancer cells were treated with 3.2 μM anionic (A) and neutral ceramide (C6) or non-ceramide nanoliposomes that either contained 0.01, 0.1 or 1 μM vinblastine or PBS. Ghost liposomes contained no ceramide or vinblastine. Unencapsulated (free) vinblastine was also administered at similar concentrations. All treatments were for 24 hrs.
Cell viability was assessed by MTS assay, which measures cellular respiration as a function of reduction of MTS to formazene at 490 nm. […] N=6 individual samples for each condition, replicated in triplicate.
MTS (3-(4,5-dimethylthiazol-2-yl)-5-(3-carboxymethoxyphenyl)-2-(4-sulfophenyl)-2H-tetrazolium), in the presence of phenazine methosulfate (PMS), produces a reduced formazan product, whose purple color can be assessed. In living cells, reduced formazan has an absorbance maximum at 490-500 nm in phosphate-buffered saline. The MTS assay is often described as a ‘one-step’ MTT assay, which offers the convenience of adding the reagent straight to the cell culture without the intermittent steps required in the MTT assay. However this convenience makes the MTS assay susceptible to cololmetric interference as the intermittent steps in the MTT assay remove traces of colored compounds, whilst these remain in the microtiter plate in the one-step MTS assay.

primary human AML cells = test: Clonogeneic growth in semisolid media; format: cell-based; conditions: 12-14 days in semi-solid medium; FIG. 3A
Description: For FIG. 3A, primary human AML cells (n=5) were thawed and grown for 12-14 days in semi-solid medium with the indicated concentration of Lip-C6 or Lip-ghost and/or vinblastine.

Compound: CC[C@]1(O)C[C@@H]2CN(CCc3c([nH]c4ccccc34)[C@@](C(=O)OC)(c3cc4c(cc3OC)N(C)[C@H]3[C@@](O)(C(=O)OC)[C@H](OC(C)=O)[C@]5(CC)C=CCN6CC[C@]43[C@@H]65)C2)C1 [vinblastine]
- cell viability (MTS) [1]: Only the high concentration of free vinblastine reduced cell viability
- growth and survival / colony formation (primary human AML cells): potentiates the inhibitory activity of C6 ceramide nanoliposomes
